Data reported in paper PMC8871312, “Effects of Microbial Transformation on the Biological Activities of Prenylated Chalcones from Angelica keiskei” (Foods, 2022).

Target: T1, Tyrosinase from mushroom
T1 construct: gene PPO3
Experiment: dopachrome absorbance at […] nm
Assay type: biochemical
Conditions: 2 mM L-tyrosine, 0.1 M phosphate pH 6.5, 37 °C, 30 min, 150 U/mL enzyme; read-out: IC50 ± SD (μM) / Tyrosinase

IC50	Compound
> 100 µM	CC(C)=CCC/C(C)=C/Cc1c(O)ccc(C(=O)/C=C/c2ccc(O)cc2)c1O [compound 3, xanthoangelol]
28.7 ± 1.24 µM	COC(C)(C)CCc1c(O[C@@H]2O[C@H](CO)[C@@H](O)[C@H](O)[C@H]2O)ccc(C(=O)/C=C/c2ccc(O)cc2)c1O [compound 5, 3′-(3-O-Methyl-3-methylbutyl)-4′-O-β-D-glucopyranosyl-4,2′-dihydroxychalcone]
33.3 ± 1.16 µM	CCOC(C)(C)CCc1c(O[C@@H]2O[C@H](CO)[C@@H](O)[C@H](O)[C@H]2O)ccc(C(=O)/C=C/c2ccc(O)cc2)c1O [compound 7, 3′-(3-O-Ethyl-3-methylbutyl)-4′-O-β-D-glucopyranosyl-4,2′-dihydroxychalcone]

More lines, now with the values behind:

Compound	IC50
CC(C)=CCc1c(O)ccc(C(=O)/C=C/c2ccc(O)cc2)c1O [compound 1, isobavachalcone]	> 100 µM
CC(C)(O)CCc1c(O[C@@H]2O[C@H](CO)[C@@H](O)[C@H](O)[C@H]2O)ccc(C(=O)/C=C/c2ccc(O)cc2)c1O [compound 4, 3′-(3-Hydroxy-3-methylbutyl)-4′-O-β-D-glucopyranosyl-4,2′-dihydroxychalcone]	78.5 ± 3.13 µM
CC(C)=CCc1c(O[C@@H]2O[C@H](CO)[C@@H](O)[C@H](O)[C@H]2O)ccc(C(=O)/C=C/c2ccc(O)cc2)c1O [compound 6, 3′-(3-methyl-2-butenyl)-4′-O-β-D-glucopyranosyl-4,2′-dihydroxychalcone]	43.1 ± 6.74 µM
CC(C)=CCC/C(C)=C/Cc1c(O[C@@H]2O[C@H](CO)[C@@H](O)[C@H](O)[C@H]2O)ccc(C(=O)/C=C/c2ccc(O)cc2)c1O [compound 10, 4′-O-β-D-Glucopyranosyl xanthoangelol]	71.7 ± 9.22 µM

Target: T1, Tyrosinase from mushroom
Experiment: dopachrome absorbance at […] nm
Assay type: biochemical
Conditions: 2 mM L-tyrosine, 0.1 M phosphate pH 6.5, 37 °C, 30 min, 150 U/mL enzyme; read-out: IC50 ± SD (μM) / Tyrosinase
Remark: another data set of the same source

IC50	Compound
> 100 µM	COc1ccc(C(=O)/C=C/c2ccc(O)cc2)c(O)c1CC=C(C)C [compound 2, 4-hydroxyderricin]
